# Results reported in US11236087B2, “Highly active pyrazolo-piperidine substituted indole-2-carboxamides active against the hepatitis B virus (HBV)” (AiCuris GmbH & Co. KG, priority 2017, dated 2022).
# Legend:
# [1] = Cell viability assay (AlamarBlue) in HepAD38 cells; conditions: human
# [2] = tested on: HBV; assay: Determination of HBV DNA from the supernatants of HepAD38 cells (anti-HBV activity); type: cell-based, hepatitis B virus; conditions: Hepatitis B virus, 144 h; HBV DNA in HepAD38 supernatant, day 6, qPCR; read-out: Cell Activity (EC50)
# Outline: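 Supernatant viral DNA was measured by LightCycler qPCR, calibrated with pCH-9/3091 plasmid, 6 days after tetracycline-free HepAD38 cultures received half-log serial compound dilutions; untreated and tetracycline-treated cells served as controls; EC50 was fitted by non-linear regression.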
# [3] = target: T1, HBV core protein (UniProt P03146); assay: Biochemical capsid assembly assay (fluorescence quenching); design: species or system hepatitis B virus; conditions: read-out: Assembly Activity (IC50); BODIPY-FL labelled core protein, 300 μM NaCl, read 6 min after start
# T1 construct: fused on or other part: BODIPY-FL maleimide label on the C-terminal Cys150
# T1 sequence (P03146 whole entry, looked up, the tested form may be a part): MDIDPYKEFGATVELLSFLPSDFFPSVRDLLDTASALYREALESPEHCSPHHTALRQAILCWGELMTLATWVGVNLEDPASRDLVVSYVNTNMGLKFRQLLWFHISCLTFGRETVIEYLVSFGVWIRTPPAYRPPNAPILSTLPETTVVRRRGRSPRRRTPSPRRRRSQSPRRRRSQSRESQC
# Outline: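 Assembly-induced fluorescence quenching (477/525 nm) was measured 6 min after NaCl addition ([…]), against 2.5 M and 0 M NaCl controls. The labelled C150 core dimer (truncated at 149) at 1.0-2.0 μM in HEPES pH 7.5 was tested with eight half-log compound dilutions, top 100, 31.6 or 10 μM. EC50 was obtained by non-linear fit from triplicates run three times.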
SMILES,CC50 at 6 days [1] [µM],EC50 [2] [µM],IC50 [3] [µM]
"COCC1(N(C)C(=O)c2n[nH]c3c2CN(C(=O)c2cc4c(Cl)cccc4[nH]2)CC3)CC1 [Example 262, 5-(4-chloro-1H-indole-2-carbonyl)-N-[1-(methoxymethyl)cyclopropyl]-N-methyl-1H,4H,5H,6H,7H-pyrazolo[4,3-c]pyridine-3-carboxamide]",> 10,< 1,< 5
"COCC1(N(C)C(=O)c2n[nH]c3c2CN(C(=O)c2cc4ccc(Cl)cc4[nH]2)CC3)CC1 [Example 263, 5-(6-chloro-1H-indole-2-carbonyl)-N-[1-(methoxymethyl)cyclopropyl]-N-methyl-1H,4H,5H,6H,7H-pyrazolo[4,3-c]pyridine-3-carboxamide]",> 10,< 1,< 5
"COCC1(N(C)C(=O)c2n[nH]c3c2CN(C(=O)c2cc4c(Cl)cc(F)cc4[nH]2)CC3)CC1 [Example 264, 5-(4-chloro-6-fluoro-1H-indole-2-carbonyl)-N-[1-(methoxymethyl)cyclopropyl]-N-methyl-1H,4H,5H,6H,7H-pyrazolo[4,3-c]pyridine-3-carboxamide]",> 10,< 1,< 5
"COCC1(N(C)C(=O)c2n[nH]c3c2CN(C(=O)c2cc4cc(F)c(Cl)cc4[nH]2)CC3)CC1 [Example 265, 5-(6-chloro-5-fluoro-1H-indole-2-carbonyl)-N-[1-(methoxymethyl)cyclopropyl]-N-methyl-1H,4H,5H,6H,7H-pyrazolo[4,3-c]pyridine-3-carboxamide]",> 10,< 1,< 5
"COCC1(N(C)C(=O)c2n[nH]c3c2CN(C(=O)c2cc4c(F)cc(F)cc4[nH]2)CC3)CC1 [Example 266, 5-(4,6-difluoro-1H-indole-2-carbonyl)-N-[1-(methoxymethyl)cyclopropyl]-N-methyl-1H,4H,5H,6H,7H-pyrazolo[4,3-c]pyridine-3-carboxamide]",> 10,< 1,< 5
"COCC1(N(C)C(=O)c2n[nH]c3c2CN(C(=O)c2cc4c(F)c(F)ccc4[nH]2)CC3)CC1 [Example 267, 5-(4,5-difluoro-1H-indole-2-carbonyl)-N-[1-(methoxymethyl)cyclopropyl]-N-methyl-1H,4H,5H,6H,7H-pyrazolo[4,3-c]pyridine-3-carboxamide]",> 10,< 1,< 5
"COCC1(N(C)C(=O)c2n[nH]c3c2CN(C(=O)c2cc4c(C)cc(F)cc4[nH]2)CC3)CC1 [Example 269, 5-(6-fluoro-4-methyl-1H-indole-2-carbonyl)-N-[1-(methoxymethyl)cyclopropyl]-N-methyl-1H,4H,5H,6H,7H-pyrazolo[4,3-c]pyridine-3-carboxamide]",> 10,< 1,< 5
"CCc1cccc2[nH]c(C(=O)N3CCc4[nH]nc(C(=O)N(C)C5(COC)CC5)c4C3)cc12 [Example 270, 5-(4-ethyl-1H-indole-2-carbonyl)-N-[1-(methoxymethyl)cyclopropyl]-N-methyl-1H,4H,5H,6H,7H-pyrazolo[4,3-c]pyridine-3-carboxamide]",> 10,< 1,< 5
"CCc1cc(F)cc2[nH]c(C(=O)N3CCc4[nH]nc(C(=O)N(C)C5(CO)CC5)c4C3)cc12 [Example 271, 5-(4-ethyl-6-fluoro-1H-indole-2-carbonyl)-N-[1-(hydroxymethyl)cyclopropyl]-N-methyl-1H,4H,5H,6H,7H-pyrazolo[4,3-c]pyridine-3-carboxamide]",> 10,< 1,< 5
"CCc1cc(F)cc2[nH]c(C(=O)N3CCc4[nH]nc(C(=O)N(C)C5(COC)CC5)c4C3)cc12 [Example 272, 5-(4-ethyl-6-fluoro-1H-indole-2-carbonyl)-N-[1-(methoxymethyl)cyclopropyl]-N-methyl-1H,4H,5H,6H,7H-pyrazolo[4,3-c]pyridine-3-carboxamide]",> 10,< 1,< 5
"CCON=C(C)c1n[nH]c2c1CN(C(=O)c1cc3ccccc3[nH]1)CC2 [Example 273, ethoxy({1-[5-(1H-indole-2-carbonyl)-1H,4H,5H,6H,7H-pyrazolo[4,3-c]pyridin-3-yl]ethylidene})amine]",> 10,1 to 25,< 100
"CON=C(C)c1n[nH]c2c1CN(C(=O)c1cc3ccccc3[nH]1)CC2 [Example 274, {1-[5-(1H-indole-2-carbonyl)-1H,4H,5H,6H,7H-pyrazolo[4,3-c]pyridin-3-yl]ethylidene}(methoxy)amine]",> 10,1 to 25,< 100
"O=C(c1cc2ccccc2[nH]1)N1CCc2n[nH]c(C(=O)N3CCCCC34CC4)c2C1 [Example 279, 2-(3-{4-azaspiro[2.5]octane-4-carbonyl}-2H,4H,5H,6H,7H-pyrazolo[4,3-c]pyridine-5-carbonyl)-1H-indole]",> 10,< 1,< 5
"CN(CCN)C(=O)c1[nH]nc2c1CN(C(=O)c1cc3ccccc3[nH]1)CC2 [Example 280, N-(2-aminoethyl)-5-(1H-indole-2-carbonyl)-N-methyl-2H,4H,5H,6H,7H-pyrazolo[4,3-c]pyridine-3-carboxamide]",> 10,< 1,< 100
"CNC(=O)c1n[nH]c2c1CN(C(=O)c1cc3ccccc3[nH]1)CC2 [Example 285, 5-(1H-indole-2-carbonyl)-N-methyl-1H,4H,5H,6H,7H-pyrazolo[4,3-c]pyridine-3-carboxamide]",> 10,1 to 25,< 100
"CN(C(=O)c1n[nH]c2c1CN(C(=O)c1cc3c(Cl)cccc3[nH]1)CC2)C1(CO)CC1 [Example 290, 5-(4-chloro-1H-indole-2-carbonyl)-N-[1-(hydroxymethyl)cyclopropyl]-N-methyl-1H,4H,5H,6H,7H-pyrazolo[4,3-c]pyridine-3-carboxamide]",> 10,< 1,< 5
"CCc1cccc2[nH]c(C(=O)N3CCc4[nH]nc(C(=O)N(C)C5(CO)CC5)c4C3)cc12 [Example 291, 5-(4-ethyl-1H-indole-2-carbonyl)-N-[1-(hydroxymethyl)cyclopropyl]-N-methyl-1H,4H,5H,6H,7H-pyrazolo[4,3-c]pyridine-3-carboxamide]",> 10,< 1,< 5
"CN(CCC#N)C(=O)c1n[nH]c2c1CN(C(=O)c1cc3ccccc3[nH]1)CC2 [Example 292, N-(2-cyanoethyl)-5-(1H-indole-2-carbonyl)-N-methyl-1H,4H,5H,6H,7H-pyrazolo[4,3-c]pyridine-3-carboxamide]",> 10,1 to 25,< 5
"CCN(C(=O)c1n[nH]c2c1CN(C(=O)c1cc3ccccc3[nH]1)CC2)C1(COC)CC1 [Example 296, N-ethyl-5-(1H-indole-2-carbonyl)-N-[1-(methoxymethyl)cyclopropyl]-1H,4H,5H,6H,7H-pyrazolo[4,3-c]pyridine-3-carboxamide]",> 10,< 1,< 5
